Results: publication PMC3814370, “Functional assignment of KEOPS/EKC complex subunits in the biosynthesis of the universal t^6A tRNA modification” (Nucleic Acids Research, 2013)

Experiments:
Format in all cases: biochemical
[1] = target: T1, PaKEOPS (Pcc1-Kae1-Bud32-Cgi121) (Pyrococcus abyssi, UniProt Q9UYB9); test: TLC of radiolabelled ATP hydrolysis; details: 100 uM ATP, 50 °C, 30 min, with or without tRNA; reconstituted complex; labelled compound
T1 construct: recombinant from E. coli Rosetta2, His-tag purification; whole complex or reconstituted from Pcc1-Kae1 plus Bud32-Cgi121; homodimer of the heterotetramer; with tRNA N6-adenosine threonylcarbamoyltransferase; KEOPS complex Pcc1-like subunit; Regulatory protein Cgi121

[2] = target: T2, Bud32-Cgi121 binary complex (Pyrococcus abyssi, UniProt Q9UYB9); test: autophosphorylation with gamma-32P ATP, SDS-PAGE phosphorimaging; details: 25 uM cold ATP, 55 °C, 30 min; no ATPase activity in TLC assay; labelled compound
T2 construct: recombinant from E. coli Rosetta2, His-tag purification; binary complex, monomeric form; with Regulatory protein Cgi121
T2 sequence (Q9UYB9 1-220): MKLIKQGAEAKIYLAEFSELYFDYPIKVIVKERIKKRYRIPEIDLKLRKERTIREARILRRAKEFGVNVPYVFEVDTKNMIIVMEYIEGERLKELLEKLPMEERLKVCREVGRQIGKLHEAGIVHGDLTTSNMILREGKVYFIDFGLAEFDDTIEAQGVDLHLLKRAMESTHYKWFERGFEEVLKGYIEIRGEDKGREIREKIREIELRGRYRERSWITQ
T2 sequence (Q9UZ62 1-171 partner): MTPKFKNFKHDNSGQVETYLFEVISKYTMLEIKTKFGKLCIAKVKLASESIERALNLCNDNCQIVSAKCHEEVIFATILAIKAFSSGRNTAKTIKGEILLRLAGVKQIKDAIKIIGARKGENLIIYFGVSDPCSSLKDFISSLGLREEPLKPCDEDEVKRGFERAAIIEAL

[3] = target: T3, Kae1-Bud32-Cgi121 ternary complex (Pyrococcus abyssi, UniProt Q9UYB9); test: TLC of radiolabelled ATP hydrolysis; details: 100 uM ATP, 50 °C, 30 min; independent of tRNA; labelled compound
T3 construct: recombinant from E. coli Rosetta2, His-tag purification; ternary complex, monomeric form; with tRNA N6-adenosine threonylcarbamoyltransferase; Regulatory protein Cgi121

[4] = target: T4, Kae1-Bud32 binary complex (Pyrococcus abyssi, UniProt Q9UYB9); test: TLC of radiolabelled ATP hydrolysis; details: 100 uM ATP, 50 °C, 30 min; independent of tRNA; labelled compound
T4 construct: recombinant from E. coli Rosetta2, His-tag purification; binary complex, monomeric form; with tRNA N6-adenosine threonylcarbamoyltransferase

[5] = target: T1, PaKEOPS (Pcc1-Kae1-Bud32-Cgi121); test: TLC of radiolabelled ATP hydrolysis; details: 100 uM ATP, 50 °C, 30 min, with or without tRNA; reconstituted complex; labelled compound; remark: listed apart in the source
[6] = target: T5, PaKEOPS (Pcc1-Kae1-Bud32-Cgi121) (Pyrococcus abyssi, UniProt Q9UYB9, D127R); test: TLC of radiolabelled ATP hydrolysis; details: 100 uM ATP, 50 °C, 30 min, with or without tRNA; reconstituted complex; labelled compound
T5 construct: recombinant from E. coli Rosetta2, His-tag purification; whole complex or reconstituted from Pcc1-Kae1 plus Bud32-Cgi121; homodimer of the heterotetramer; with tRNA N6-adenosine threonylcarbamoyltransferase; KEOPS complex Pcc1-like subunit; Regulatory protein Cgi121

[7] = target: T1, PaKEOPS (Pcc1-Kae1-Bud32-Cgi121); test: TLC of radiolabelled ATP hydrolysis; details: 100 uM ATP, 50 °C, 30 min; stimulated by tRNA; labelled compound

For `Nc1ncnc2c1ncn2[C@@H]1O[C@H](COP(=O)(O)OP(=O)(O)OP(=O)(O)O)[C@@H](O)[C@H]1O` [ATP], the “normal ATPase activity” value [1] was “the reconstituted mutant PaKEOPS exhibited normal ATPase activity”, the autophosphorylation [2] was “When the reaction mixture contained only Bud32–Cgi121, a significant autophosphorylation activity of Bud32 was observed” and the ATPase activity [3] was “we recorded a significant ATPase activity that was independent of tRNA”. For the same molecule, the ATPase activity [4] was “binary complex Kae1–Bud32 exhibited a significant ATPase activity”, the “wild-type ATPase activity” value [5] was “PaKEOPS (Kae1^D159A) behaved in the same manner as the wild-type PaKEOPS” and the “ATPase activity totally lost” value [6] was “PaKEOPS (Bud32^D127R) totally lost the ATPase activity”. The ATPase activity [7] was “the ATPase activity of the whole PaKEOPS complex is stimulated by the presence of tRNA”.
